For one compound, solubility in water and stability results are on record in patent publication US20060216792A1, “Process for producing 2-0-alpha-d-glucopyranosyl-l-ascorbic acid” (priority 2002, published 2006).

This series in a line: properties of crystalline AA-2G (stability, hygroscopicity, solubility). The format is physicochemical. From the text:
Different from the case of L-ascorbic acid, AA-2G hardly causes Maillard reaction. […] Also, by using AA-2G together with vitamins E and P, those biological activities can be increased. • (4) It is possible that AA-2G is produced and metabolized in living bodies when L-ascorbic acid and α-glucosyl saccharide are orally in taken. […] AA-2G can be advantageously used as vitamin C-reinforcement, taste-improving agent, acidifier, stabilizer, and the like for vitamin in the form of powder, granule, tablet, and the like, or foods such as cream, chocolate, chewing gum, instant juice, instant seasoning, and the like. • (6) Crystalline AA-2G is substantially non- or hardly hygroscopic.

Molecules are shown by their SMILES.

For `O=C1O[C@H]([C@@H](O)CO)C(O)=C1O[C@H]1O[C@H](CO)[C@@H](O)[C@H](O)[C@H]1O` [AA-2G, 2-O-α-D-glucopyranosyl-L-ascorbic acid], the solubility in water entry is reported as “high solubility”. Moreover, the stability entry (crystalline product of Example 1) is reported as “sufficient stability”.
